From patent US20120028897A1, “METHODS AND COMPOSITIONS FOR THE TREATMENT OF FLUID RETENTION DISORDERS” (priority 2008, published 2012)

Columns and labels:
anesthetized rats [1] = assay: Glomerular filtration rate (FITC-inulin clearance) during and after iv peptide infusion; format: in vivo, rat
Experimental: All rats received a continuous intravenous infusion (10 μl/min/100 g BW) of isotonic saline containing FITC-labeled inulin for measurement of inulin clearance. Uncongugated FITC label and small inulin polymers were removed from the inulin solution by overnight dialysis against isotonic saline (SpectraPor 6 dialysis membrane, 1 kDa cutoff-limit, Spectrum Laboratories, Rancho Domingo, Calif.). Undissolved particulates were removed from the solution by filtration through a […] filter before each experiment (Steriflip, Millipore Inc. Billerica, Mass.). At least one hr was allowed for equilibration before the start of urine collections, at which point plasma inulin concentration had stabilized at an average value of 30±3 μg/ml.
(§1) Arterial blood pressure was measured with a pressure transducer connected to a cardiovascular analyzer (Model 50110, Stoelting Instruments Wood Dale, Ill.). Left renal blood flow was measured in some rats with a flow probe positioned on the left renal artery and connected to a blood flow monitor (model 1 PRB probe and model T420 monitor, Transonic Systems Inc. Ithaca N.Y.). Arterial pressure, heart rate, and renal blood flow were digitized with an A/D converter (Keithley instruments, Cleveland, Ohio Model KUSB 3100) for display and storage on a Windows-based personal computer using open layers data acquisition software (Dtx_Ez, Data Translation Inc, Marlboro, Mass.). Sodium and potassium concentrations in plasma and urine were measured by flame photometry (Model 943, Instrumentation Laboratory Co., Lexington Mass.). Glomerular filtration rate (GFR) was measured as the renal clearance rate of FITC-labeled inulin
(§2) After post-surgical equilibration (−60 min) and three 20 min control clearance periods, huUgnA or B was infused into the jugular vein at 10 μl/min over a 60 min period, followed by a return to isotonic saline for the remainder of the experiment. The infused doses of huUgnA were 12, 25, 50, 100, or 200 nmol/kg BW in a total of 38 rats; huUgnB doses were 9, 18, 35, 70, and 140 nmol/kg BW in 35 rats. A UgnA mimetic, E. coli STh (ST-core), was infused into a third group of 32 rats at doses of 17, 32, 66, 133, and 266 nmol/kg. Renal excretory responses to these infusions were slow to develop and long lasting, so clearance periods were continued for 2-3 hr after the termination of the peptide infusion. This protracted time course limited protocols to one dose of one peptide in each rat. A control group of 10 rats received isotonic saline at 10 μl/min in place of the peptide infusion, but was otherwise treated in the same way as the experimental groups.
This assay was based on the method described by Lorenz and Gruenstein. Urine samples were diluted with hepes-buffered saline (3, 5, 10, or 20 fold, based on urine flow) to neutralize the pH and bring the intensity of FITC emissions into detector range. Small volumes (3-5 μl) of diluted urine and undiluted plasma samples were drawn into constant bore capillary tubes (10 μl Microcap tubes, Drummond Scientific Company, Broomall Pa.) and sealed at each end with water-saturated mineral oil. FITC emission intensity was measured by imaging each sample at 10× magnification with an epifluorescence microscope (Axiovert S100TV, Carl Zeiss Inc. Thornwood, N.Y.) fitted with a CCD camera (Orca II, Hamamatsu Inc. Bridgewater, N.J.) controlled by Metamorph imaging software (Molecular Devices, Sunnyvale, Calif.). Fluorescence intensities were measured as mean pixel intensity obtained from a consistent central region of each sample during a 25 or 500 msec exposure for urine and plasma, respectively. Background intensities were measured in the same way using bladder urine and tail vein plasma collected from the same rat before the beginning of inulin infusion. Inulin concentrations in plasma and urine samples were calculated from a standard curve prepared from the infusion solution used in each experiment. […]

anesthetized rats [2] = assay: Mean arterial blood pressure during and after iv peptide infusion; format: in vivo, rat
Experimental: Rats were not fasted prior to clearance experiments and ranged in weight from 250-340 g at the time of study. Anesthesia was induced with an intraperitoneal injection of pentobarbital sodium (55 mg/kg BW) and maintained at a surgical plane by intermittent intravenous supplementation. Core temperature was maintained at 37° C. by a servo-controlled, heated operating table. Animals breathed spontaneously through a PE240 cannula inserted into the trachea. A jugular vein was catheterized with PE50 cannula tubing for intravenous infusion of isotonic saline containing FITC-labeled inulin (0.4% W/V, Sigma, St Louis Mo.) and two PE10 cannulae, one for supplemental anesthetic and the other for peptide infusions (described below in the experimental protocol section). The ureters were exposed through a midline ventral incision and cannulated with PE10 tubing about one cm from each kidney. Urine was collected over 20 min periods and the volume estimated by weight. A femoral artery was cannulated with PE50 tubing for continuous measurement of arterial blood pressure and intermittent blood samples (50 μl), taken at the mid point of each urine collection.
as §1, §2
Group comparisons were made with one way analysis of variance (ANOVA) using peptide doses as column variables. Columns were further divided into pre-infusion, infusion, and post infusion subgroups to facilitate post hoc testing with Bonferroni's method for selected multiple comparisons. Row variables were individual measurements from each clearance period for each rat. Responses were tested for statistical significance by comparing control values during the pre-infusion, infusion and post infusion collection periods with corresponding values obtained from peptide-infused rats. Each experimental group included 5 different doses of huUgnA, huUgnB, or ST-core. Thus, fifteen comparisons were required for each measured variable in each group.

CC(C)C[C@H](NC(=O)[C@@H]1CSSC[C@@H]2NC(=O)[C@H](CC(C)C)NC(=O)[C@H](CCC(=O)O)NC(=O)[C@@H](NC(=O)[C@H](CC(=O)O)NC(=O)[C@H](CC(=O)O)NC(=O)[C@@H](N)CC(N)=O)CSSC[C@H](NC(=O)[C@H](C)NC(=O)[C@H](C(C)C)NC(=O)[C@H](CC(N)=O)NC(=O)[C@H](C(C)C)NC2=O)C(=O)N[C@@H]([C@@H](C)O)C(=O)NCC(=O)N1)C(=O)O (single isomer, unassigned) [huUgnA, Asn Asp Asp Cys Glu Leu Cys Val Asn Val Ala Cys Thr Gly Cys Leu, reference compound] was tested, and the “GFR (glomerular filtration rate)” value (anesthetized rats [1]; huUgnA 12 nmol, Infusion) was 869 ± 64 μl/min/g KW, the “GFR (glomerular filtration rate)” value (anesthetized rats [1]; huUgnA 12 nmol, Post-infuse) was 923 ± 66 μl/min/g KW and the “GFR (glomerular filtration rate)” value (anesthetized rats [1]; huUgnA 12 nmol, Pre-infuse) was 895 ± 51 μl/min/g KW. The “GFR (glomerular filtration rate)” value (anesthetized rats [1]; huUgnA 25 nmol, Infusion) was 886 ± 66 μl/min/g KW, the “GFR (glomerular filtration rate)” value (anesthetized rats [1]; huUgnA 25 nmol, Post-infuse) was 823 ± 49 μl/min/g KW and the “GFR (glomerular filtration rate)” value (anesthetized rats [1]; huUgnA 25 nmol, Pre-infuse) was 820 ± 40 μl/min/g KW. The “GFR (glomerular filtration rate)” value (anesthetized rats [1]; huUgnA 50 nmol, Infusion) was 817 ± 53 μl/min/g KW, the “GFR (glomerular filtration rate)” value (anesthetized rats [1]; huUgnA 50 nmol, Post-infuse) was 869 ± 49 μl/min/g KW and the “GFR (glomerular filtration rate)” value (anesthetized rats [1]; huUgnA 50 nmol, Pre-infuse) was 858 ± 52 μl/min/g KW. For the same compound, the “GFR (glomerular filtration rate)” value (anesthetized rats [1]; huUgnA 100 nmol, Infusion) was 858 ± 55 μl/min/g KW, the “GFR (glomerular filtration rate)” value (anesthetized rats [1]; huUgnA 100 nmol, Post-infuse) was 906 ± 38 μl/min/g KW and the “GFR (glomerular filtration rate)” value (anesthetized rats [1]; huUgnA 100 nmol, Pre-infuse) was 807 ± 62 μl/min/g KW. For the same compound, the “GFR (glomerular filtration rate)” value (anesthetized rats [1]; huUgnA 200 nmol, Infusion) was 827 ± 61 μl/min/g KW, the “GFR (glomerular filtration rate)” value (anesthetized rats [1]; huUgnA 200 nmol, Post-infuse) was 849 ± 24 μl/min/g KW and the “GFR (glomerular filtration rate)” value (anesthetized rats [1]; huUgnA 200 nmol, Pre-infuse) was 857 ± 43 μl/min/g KW. The “BP (mean arterial blood pressure)” value (anesthetized rats [2]; huUgnA 12 nmol, Infusion) was 110 ± 4 mmHg, the “BP (mean arterial blood pressure)” value (anesthetized rats [2]; huUgnA 12 nmol, Post-infuse) was 104 ± 3 mmHg and the “BP (mean arterial blood pressure)” value (anesthetized rats [2]; huUgnA 12 nmol, Pre-infuse) was 121 ± 4 mmHg. For the same compound, the “BP (mean arterial blood pressure)” value (anesthetized rats [2]; huUgnA 25 nmol, Infusion) was 111 ± 4 mmHg, the “BP (mean arterial blood pressure)” value (anesthetized rats [2]; huUgnA 25 nmol, Post-infuse) was 105 ± 4 mmHg and the “BP (mean arterial blood pressure)” value (anesthetized rats [2]; huUgnA 25 nmol, Pre-infuse) was 119 ± 3 mmHg. For the same compound, the “BP (mean arterial blood pressure)” value (anesthetized rats [2]; huUgnA 50 nmol, Infusion) was 106 ± 3 mmHg, the “BP (mean arterial blood pressure)” value (anesthetized rats [2]; huUgnA 50 nmol, Post-infuse) was 101 ± 3 mmHg and the “BP (mean arterial blood pressure)” value (anesthetized rats [2]; huUgnA 50 nmol, Pre-infuse) was 117 ± 3 mmHg. For the same compound, the “BP (mean arterial blood pressure)” value (anesthetized rats [2]; huUgnA 100 nmol, Infusion) was 115 ± 3 mmHg, the “BP (mean arterial blood pressure)” value (anesthetized rats [2]; huUgnA 100 nmol, Post-infuse) was 109 ± 4 mmHg and the “BP (mean arterial blood pressure)” value (anesthetized rats [2]; huUgnA 100 nmol, Pre-infuse) was 121 ± 4 mmHg. For the same compound, the “BP (mean arterial blood pressure)” value (anesthetized rats [2]; huUgnA 200 nmol, Infusion) was 113 ± 5 mmHg, the “BP (mean arterial blood pressure)” value (anesthetized rats [2]; huUgnA 200 nmol, Post-infuse) was 112 ± 4 mmHg and the “BP (mean arterial blood pressure)” value (anesthetized rats [2]; huUgnA 200 nmol, Pre-infuse) was 121 ± 7 mmHg.
In the case of CC(C)C[C@H](NC(=O)[C@@H]1CSSC[C@@H]2NC(=O)[C@H](CC(C)C)NC(=O)[C@H](CCC(=O)O)NC(=O)[C@@H](NC(=O)[C@H](CC(=O)O)NC(=O)[C@H](CC(=O)O)NC(=O)[C@@H](N)CC(N)=O)CSSC[C@H](NC(=O)[C@H](C)NC(=O)[C@H](C(C)C)NC(=O)[C@H](CC(N)=O)NC(=O)[C@H](C(C)C)NC2=O)C(=O)N[C@@H]([C@@H](C)O)C(=O)NCC(=O)N1)C(=O)O (single isomer, unassigned) [huUgnB, Asn Asp Asp Cys Glu Leu Cys Val Asn Val Ala Cys Thr Gly Cys Leu], the “GFR (glomerular filtration rate)” value (anesthetized rats [1]; huUgnB 9 nmol, Infusion) is reported as 918 ± 66 μl/min/g KW, the “GFR (glomerular filtration rate)” value (anesthetized rats [1]; huUgnB 9 nmol, Post-infuse) is reported as 947 ± 60 μl/min/g KW and the “GFR (glomerular filtration rate)” value (anesthetized rats [1]; huUgnB 9 nmol, Pre-infuse) is reported as 921 ± 57 μl/min/g KW. The “GFR (glomerular filtration rate)” value (anesthetized rats [1]; huUgnB 18 nmol, Infusion) was 936 ± 76 μl/min/g KW, the “GFR (glomerular filtration rate)” value (anesthetized rats [1]; huUgnB 18 nmol, Post-infuse) was 877 ± 80 μl/min/g KW and the “GFR (glomerular filtration rate)” value (anesthetized rats [1]; huUgnB 18 nmol, Pre-infuse) was 890 ± 55 μl/min/g KW. For the same compound, the “GFR (glomerular filtration rate)” value (anesthetized rats [1]; huUgnB 35 nmol, Infusion) was 830 ± 48 μl/min/g KW, the “GFR (glomerular filtration rate)” value (anesthetized rats [1]; huUgnB 35 nmol, Post-infuse) was 870 ± 53 μl/min/g KW and the “GFR (glomerular filtration rate)” value (anesthetized rats [1]; huUgnB 35 nmol, Pre-infuse) was 866 ± 64 μl/min/g KW. The “GFR (glomerular filtration rate)” value (anesthetized rats [1]; huUgnB 70 nmol, Infusion) was 867 ± 86 μl/min/g KW, the “GFR (glomerular filtration rate)” value (anesthetized rats [1]; huUgnB 70 nmol, Post-infuse) was 876 ± 26 μl/min/g KW and the “GFR (glomerular filtration rate)” value (anesthetized rats [1]; huUgnB 70 nmol, Pre-infuse) was 883 ± 95 μl/min/g KW. The “GFR (glomerular filtration rate)” value (anesthetized rats [1]; huUgnB 140 nmol, Infusion) was 788 ± 67 μl/min/g KW, the “GFR (glomerular filtration rate)” value (anesthetized rats [1]; huUgnB 140 nmol, Post-infuse) was 924 ± 46 μl/min/g KW and the “GFR (glomerular filtration rate)” value (anesthetized rats [1]; huUgnB 140 nmol, Pre-infuse) was 858 ± 86 μl/min/g KW. The “BP (mean arterial blood pressure)” value (anesthetized rats [2]; huUgnB 9 nmol, Infusion) was 108 ± 6 mmHg, the “BP (mean arterial blood pressure)” value (anesthetized rats [2]; huUgnB 9 nmol, Post-infuse) was 107 ± 5 mmHg and the “BP (mean arterial blood pressure)” value (anesthetized rats [2]; huUgnB 9 nmol, Pre-infuse) was 115 ± 5 mmHg. The “BP (mean arterial blood pressure)” value (anesthetized rats [2]; huUgnB 18 nmol, Infusion) was 117 ± 3 mmHg, the “BP (mean arterial blood pressure)” value (anesthetized rats [2]; huUgnB 18 nmol, Post-infuse) was 113 ± 3 mmHg and the “BP (mean arterial blood pressure)” value (anesthetized rats [2]; huUgnB 18 nmol, Pre-infuse) was 124 ± 2 mmHg. For the same compound, the “BP (mean arterial blood pressure)” value (anesthetized rats [2]; huUgnB 35 nmol, Infusion) was 108 ± 4 mmHg, the “BP (mean arterial blood pressure)” value (anesthetized rats [2]; huUgnB 35 nmol, Post-infuse) was 107 ± 3 mmHg and the “BP (mean arterial blood pressure)” value (anesthetized rats [2]; huUgnB 35 nmol, Pre-infuse) was 118 ± 3 mmHg. For the same compound, the “BP (mean arterial blood pressure)” value (anesthetized rats [2]; huUgnB 70 nmol, Infusion) was 107 ± 5 mmHg, the “BP (mean arterial blood pressure)” value (anesthetized rats [2]; huUgnB 70 nmol, Post-infuse) was 107 ± 4 mmHg and the “BP (mean arterial blood pressure)” value (anesthetized rats [2]; huUgnB 70 nmol, Pre-infuse) was 119 ± 3 mmHg. The “BP (mean arterial blood pressure)” value (anesthetized rats [2]; huUgnB 140 nmol, Infusion) was 119 ± 5 mmHg, the “BP (mean arterial blood pressure)” value (anesthetized rats [2]; huUgnB 140 nmol, Post-infuse) was 117 ± 5 mmHg and the “BP (mean arterial blood pressure)” value (anesthetized rats [2]; huUgnB 140 nmol, Pre-infuse) was 123 ± 5 mmHg.
